Assay: xn = mol fraction of the nth substance listed
Conditions: Liquid, Vibrating tube method

COc1cc2c(cc1O)CC1c3c(cc(O)c(OC)c3-2)CCN1C (stereo not given) [boldine] + CCCO
Conditions | mass density [kg/m3]
343 K, 1000 kPa, x1 = 0.0018 | 765.31
343 K, 2000 kPa, x1 = 0.0018 | 766.28
343 K, 3000 kPa, x1 = 0.0018 | 767.25
343 K, 4000 kPa, x1 = 0.0018 | 768.23
343 K, 5000 kPa, x1 = 0.0018 | 769.21
343 K, 6000 kPa, x1 = 0.0018 | 770.18
343 K, 7000 kPa, x1 = 0.0018 | 771.15
343 K, 8000 kPa, x1 = 0.0018 | 772.11
343 K, 9000 kPa, x1 = 0.0018 | 773.07
343 K, 10000 kPa, x1 = 0.0018 | 774.02
343 K, 11000 kPa, x1 = 0.0018 | 774.96
343 K, 12000 kPa, x1 = 0.0018 | 775.89
343 K, 13000 kPa, x1 = 0.0018 | 776.81
343 K, 14000 kPa, x1 = 0.0018 | 777.73
343 K, 15000 kPa, x1 = 0.0018 | 778.63
343 K, 16000 kPa, x1 = 0.0018 | 779.51
343 K, 17000 kPa, x1 = 0.0018 | 780.4
343 K, 18000 kPa, x1 = 0.0018 | 781.25
343 K, 19000 kPa, x1 = 0.0018 | 782.1
343 K, 20000 kPa, x1 = 0.0018 | 782.93
343.01 K, 1000 kPa, x1 = 0.0077 | 775.45
343.01 K, 1000 kPa, x1 = 0.0142 | 786.8
343.01 K, 2000 kPa, x1 = 0.0077 | 776.42
343.01 K, 2000 kPa, x1 = 0.0142 | 787.75
343.01 K, 3000 kPa, x1 = 0.0077 | 777.38
343.01 K, 3000 kPa, x1 = 0.0142 | 788.7
343.01 K, 4000 kPa, x1 = 0.0077 | 778.34
343.01 K, 4000 kPa, x1 = 0.0142 | 789.64
343.01 K, 5000 kPa, x1 = 0.0077 | 779.31
343.01 K, 5000 kPa, x1 = 0.0142 | 790.58
343.01 K, 6000 kPa, x1 = 0.0077 | 780.26
343.01 K, 6000 kPa, x1 = 0.0142 | 791.54
343.01 K, 7000 kPa, x1 = 0.0077 | 781.23
343.01 K, 7000 kPa, x1 = 0.0142 | 792.46
343.01 K, 8000 kPa, x1 = 0.0077 | 782.18
343.01 K, 8000 kPa, x1 = 0.0142 | 793.4
343.01 K, 9000 kPa, x1 = 0.0077 | 783.12
343.01 K, 9000 kPa, x1 = 0.0142 | 794.32
343.01 K, 10000 kPa, x1 = 0.0077 | 784.05
343.01 K, 10000 kPa, x1 = 0.0142 | 795.24
343.01 K, 11000 kPa, x1 = 0.0077 | 784.98
343.01 K, 11000 kPa, x1 = 0.0142 | 796.17
343.01 K, 12000 kPa, x1 = 0.0077 | 785.91
343.01 K, 12000 kPa, x1 = 0.0142 | 797.07
343.01 K, 13000 kPa, x1 = 0.0077 | 786.82
343.01 K, 13000 kPa, x1 = 0.0142 | 797.96
343.01 K, 14000 kPa, x1 = 0.0077 | 787.72
343.01 K, 14000 kPa, x1 = 0.0142 | 798.86
343.01 K, 15000 kPa, x1 = 0.0077 | 788.61
343.01 K, 15000 kPa, x1 = 0.0142 | 799.72
343.01 K, 16000 kPa, x1 = 0.0077 | 789.48
343.01 K, 16000 kPa, x1 = 0.0142 | 800.59
343.01 K, 17000 kPa, x1 = 0.0077 | 790.35
343.01 K, 17000 kPa, x1 = 0.0142 | 801.44
343.01 K, 18000 kPa, x1 = 0.0077 | 791.2
343.01 K, 18000 kPa, x1 = 0.0142 | 802.3
343.01 K, 19000 kPa, x1 = 0.0077 | 792.04
343.01 K, 19000 kPa, x1 = 0.0142 | 803.11
343.01 K, 20000 kPa, x1 = 0.0077 | 792.86
343.01 K, 20000 kPa, x1 = 0.0142 | 803.92
343.02 K, 1000 kPa, x1 = 0.0112 | 782.08
343.02 K, 2000 kPa, x1 = 0.0112 | 783.03
343.02 K, 3000 kPa, x1 = 0.0112 | 783.98
343.02 K, 4000 kPa, x1 = 0.0112 | 784.93
343.02 K, 5000 kPa, x1 = 0.0112 | 785.88
343.02 K, 6000 kPa, x1 = 0.0112 | 786.83
343.02 K, 7000 kPa, x1 = 0.0112 | 787.77
343.02 K, 8000 kPa, x1 = 0.0112 | 788.71
343.02 K, 9000 kPa, x1 = 0.0112 | 789.64
343.02 K, 10000 kPa, x1 = 0.0112 | 790.57
343.02 K, 11000 kPa, x1 = 0.0112 | 791.49
343.02 K, 12000 kPa, x1 = 0.0112 | 792.4
343.02 K, 13000 kPa, x1 = 0.0112 | 793.29
343.02 K, 14000 kPa, x1 = 0.0112 | 794.19
343.02 K, 15000 kPa, x1 = 0.0112 | 795.06
343.02 K, 16000 kPa, x1 = 0.0112 | 795.93
343.02 K, 17000 kPa, x1 = 0.0112 | 796.79
343.02 K, 18000 kPa, x1 = 0.0112 | 797.62
343.02 K, 19000 kPa, x1 = 0.0112 | 798.46
343.02 K, 20000 kPa, x1 = 0.0112 | 799.28
343.04 K, 1000 kPa, x1 = 0.0046 | 771.67
343.04 K, 2000 kPa, x1 = 0.0046 | 772.63
343.04 K, 3000 kPa, x1 = 0.0046 | 773.6
343.04 K, 4000 kPa, x1 = 0.0046 | 774.56
343.04 K, 5000 kPa, x1 = 0.0046 | 775.44
343.04 K, 6000 kPa, x1 = 0.0046 | 776.45
343.04 K, 7000 kPa, x1 = 0.0046 | 777.41
343.04 K, 8000 kPa, x1 = 0.0046 | 778.35
343.04 K, 9000 kPa, x1 = 0.0046 | 779.29
343.04 K, 10000 kPa, x1 = 0.0046 | 780.23
343.04 K, 11000 kPa, x1 = 0.0046 | 781.16
343.04 K, 12000 kPa, x1 = 0.0046 | 782.09
343.04 K, 13000 kPa, x1 = 0.0046 | 782.98
343.04 K, 14000 kPa, x1 = 0.0046 | 783.89
343.04 K, 15000 kPa, x1 = 0.0046 | 784.78
343.04 K, 16000 kPa, x1 = 0.0046 | 785.65
343.04 K, 17000 kPa, x1 = 0.0046 | 786.52
343.04 K, 18000 kPa, x1 = 0.0046 | 787.37
343.04 K, 19000 kPa, x1 = 0.0046 | 788.26
343.04 K, 20000 kPa, x1 = 0.0046 | 789.03
352.94 K, 1000 kPa, x1 = 0.0018 | 756.19
352.94 K, 1000 kPa, x1 = 0.0112 | 772.97
352.94 K, 1000 kPa, x1 = 0.0142 | 777.66
352.94 K, 2000 kPa, x1 = 0.0018 | 757.24
352.94 K, 2000 kPa, x1 = 0.0112 | 774.02
352.94 K, 2000 kPa, x1 = 0.0142 | 778.69
352.94 K, 3000 kPa, x1 = 0.0018 | 758.3
352.94 K, 3000 kPa, x1 = 0.0112 | 775.24
352.94 K, 3000 kPa, x1 = 0.0142 | 779.72
352.94 K, 4000 kPa, x1 = 0.0018 | 759.35
352.94 K, 4000 kPa, x1 = 0.0112 | 776.07
352.94 K, 4000 kPa, x1 = 0.0142 | 780.73
352.94 K, 5000 kPa, x1 = 0.0018 | 760.39
352.94 K, 5000 kPa, x1 = 0.0112 | 777.15
352.94 K, 5000 kPa, x1 = 0.0142 | 781.74
352.94 K, 6000 kPa, x1 = 0.0018 | 761.42
352.94 K, 6000 kPa, x1 = 0.0112 | 778.1
352.94 K, 6000 kPa, x1 = 0.0142 | 782.74
352.94 K, 7000 kPa, x1 = 0.0018 | 762.46
352.94 K, 7000 kPa, x1 = 0.0112 | 779.1
352.94 K, 7000 kPa, x1 = 0.0142 | 783.74
352.94 K, 8000 kPa, x1 = 0.0018 | 763.48
352.94 K, 8000 kPa, x1 = 0.0112 | 780.11
352.94 K, 8000 kPa, x1 = 0.0142 | 784.73
352.94 K, 9000 kPa, x1 = 0.0018 | 764.5
352.94 K, 9000 kPa, x1 = 0.0112 | 781.09
352.94 K, 9000 kPa, x1 = 0.0142 | 785.73
352.94 K, 10000 kPa, x1 = 0.0018 | 765.51
352.94 K, 10000 kPa, x1 = 0.0112 | 782.07
352.94 K, 10000 kPa, x1 = 0.0142 | 786.7
352.94 K, 11000 kPa, x1 = 0.0018 | 766.51
352.94 K, 11000 kPa, x1 = 0.0112 | 783.04
352.94 K, 11000 kPa, x1 = 0.0142 | 787.66
352.94 K, 12000 kPa, x1 = 0.0018 | 767.49
352.94 K, 12000 kPa, x1 = 0.0112 | 784.02
352.94 K, 12000 kPa, x1 = 0.0142 | 788.61
352.94 K, 13000 kPa, x1 = 0.0018 | 768.45
352.94 K, 13000 kPa, x1 = 0.0112 | 784.98
352.94 K, 13000 kPa, x1 = 0.0142 | 789.57
352.94 K, 14000 kPa, x1 = 0.0018 | 769.42
352.94 K, 14000 kPa, x1 = 0.0112 | 785.8
352.94 K, 14000 kPa, x1 = 0.0142 | 790.48
352.94 K, 15000 kPa, x1 = 0.0018 | 770.37
352.94 K, 15000 kPa, x1 = 0.0112 | 786.85
352.94 K, 15000 kPa, x1 = 0.0142 | 791.41
352.94 K, 16000 kPa, x1 = 0.0018 | 771.31
352.94 K, 16000 kPa, x1 = 0.0112 | 787.79
352.94 K, 16000 kPa, x1 = 0.0142 | 792.32
352.94 K, 17000 kPa, x1 = 0.0018 | 772.22
352.94 K, 17000 kPa, x1 = 0.0112 | 788.61

From the NIST ThermoML archive (doi:10.1016/j.jct.2012.03.003)
